The record followed here is paper PMC3681751, “Identification of a Novel Antimicrobial Peptide from Human Hepatitis B Virus Core Protein Arginine-Rich Domain (ARD)” (PLoS Pathogens, 2013).

Data set [1] concerns Huh 7 cells. Nature of the data set: Peptide uptake into mammalian cells. It counts as cell-based, human. The note with it: data not shown.
Data set [2] has as its system S. aureus (ATCC 19636). It counts as cell-based, Staphylococcus aureus. A digest of the protocol:
(§1)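 Mid-log cultures grown in Mueller–Hinton broth were diluted to 10^6 CFU/ml in 10 mM sodium phosphate, 50 mM NaCl, pH 7.2, mixed with serially diluted HBc ARD peptides, and held 3 hours at 37°C without shaking. Survivors were plated on Mueller–Hinton agar overnight at 37°C to define MBC; triplicates.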

Data set [3] relates to S. aureus (ATCC 29213). It counts as cell-based, Staphylococcus aureus. In short, it runs like this:
as §1

The test system of data set [4] is S. aureus (ATCC 25923). It counts as cell-based, Staphylococcus aureus. A digest of the protocol:
as §1

[5] abbreviates: methicillin-resistant strain, 3 h at 37°C in phosphate buffer pH 7.2, triplicate.

Like-named read-outs stand apart in the source and are kept apart here. Residues, ends and D or L forms follow the SMILES beside them.

As for `CC(C)[C@H](NC(=O)[C@@H](NC(=O)[C@@H](N)[C@@H](C)O)C(C)C)C(=O)N[C@@H](CCCNC(=N)N)C(=O)N[C@@H](CCCNC(=N)N)C(=O)N[C@@H](CCCNC(=N)N)C(=O)NCC(=O)N[C@@H](CCCNC(=N)N)C(=O)N[C@@H](CO)C(=O)N1CCC[C@H]1C(=O)N[C@@H](CCCNC(=N)N)C(=O)N[C@@H](CCCNC(=N)N)C(=O)N[C@@H](CCCNC(=N)N)C(=O)N[C@H](C(=O)N1CCC[C@H]1C(=O)N[C@@H](CO)C(=O)N1CCC[C@H]1C(=O)N[C@@H](CCCNC(=N)N)C(=O)N[C@@H](CCCNC(=N)N)C(=O)N[C@@H](CCCNC(=N)N)C(=O)N[C@@H](CCCNC(=N)N)C(=O)N[C@@H](CO)C(=O)N[C@@H](CCC(N)=O)C(=O)N[C@@H](CO)C(=O)N1CCC[C@H]1C(=O)N[C@@H](CCCNC(=N)N)C(=O)N[C@@H](CCCNC(=N)N)C(=O)N[C@@H](CCCNC(=N)N)C(=O)N[C@@H](CCCNC(=N)N)C(=O)N[C@@H](CO)C(=O)N[C@@H](CCC(N)=O)C(=O)N[C@@H](CO)C(=O)N[C@@H](CCCNC(=N)N)C(=O)N[C@@H](CCC(=O)O)C(=O)N[C@@H](CO)C(=O)N[C@@H](CCC(N)=O)C(=O)N[C@@H](CS)C(=O)O)[C@@H](C)O` [HBc147-183] (H-TVVRRRGRSPRRRTPSPRRRRSQSPRRRRSQSRESQC-OH; N-terminus and C-terminus assumed), the “Penetration through the cell membrane” value in data set [1] is recorded as “can penetrate through the cell membrane”. Further, in data set [2] (ATCC 19636, 3 h), the “MBC against S. aureus” value is “around 4 µM”. The “Antimicrobial activity, MBC” value in data set [2] (ATCC 19636, 3 h, pH 7.2) was 4 µM; in data set [2] (setting [5]), 18.36 µg/mL; in data set [3] (ATCC 29213, 3 h, pH 7.2) it was 4 µM; in data set [3] (setting [5]), 18.36 µg/mL; in data set [4] (ATCC 25923, 3 h, pH 7.2) it was 4 µM; in data set [4] (setting [5]), 18.36 µg/mL.
